Data taken from patent US6486160B1, “Pharmaceutical composition for modulating immunity” (Toray Industries, Inc., priority 2001, dated 2002).

What was measured:
Type in all cases: in vivo, human
[1] = system: CRP; assay: CRP value by latex agglutination assay in a patient given Pimobendan orally
Experimental: (§1) 2-(4-Methoxyphenyl)-5-(5-methyl-3-oxo-4,5-dihydro-2H-6-pyridazinyl)-benzimidazole (hereunder referred to as imobendan was orally administered to a patient who suffered from heart failure while malignant articular rheumatism set in as a complication and the CRP value thereof was determined with the elapse of time.
The CRP value was determined by the latex agglutination assay disclosed in Senju Osamu, et al.: J. Clin. Lab. Immunol. 19:99-103(1986) according to a method identical to that disclosed in Claus David R. et al.: J. Lab. Clin. Med. 87:120-128(1976).
When Pimobendan was administered to the patient in a dose of 1.25 mg, the CRP value thereof was reduced and therefore, the compound was administered in a dose of 1.25 mg twice a day on and after the next day (this was defined to be the day at which the administration was initiated).
(§2) Thus, the administration of Pimobendan was discontinued. Thereafter, Pimobendan was again administered to the patient in a dose of 1.25 mg twice a day to confirm the effect of the drug to reduce the CRP value.

[2] = system: heart function; assay: Echocardiography of the patient; conditions: patient with heart failure, 1.25 mg twice a day
[3] = system: inflammation due to the malignant articular rheumatism; assay: Inflammation due to malignant articular rheumatism in the patient; conditions: re-administration, 1.25 mg twice a day
Experimental: as §1, §2

## COc1ccc(-c2nc3ccc(C4=NNC(=O)CC4C)cc3[nH]2)cc1 (centres unmarked) [Pimobendan, 2-(4-Methoxyphenyl)-5-(5-methyl-3-oxo-4,5-dihydro-2H-6-pyridazinyl)-benzimidazole]
[1]; after first dose of 1.25 mg, value prior to administration 4.7 mg/dl
  CRP value (change): reduced
[1]; day 89, in parentheses: day at which Pimobendan was not administered (discontinued)
  CRP Value: (5.0) mg/dl
[1]; day 90, in parentheses: day at which Pimobendan was not administered (discontinued)
  CRP Value: (2.7) mg/dl
[1]; day 97, in parentheses: day at which Pimobendan was not administered (discontinued)
  CRP Value: (2.4) mg/dl
[1]; day 105, in parentheses: day at which Pimobendan was not administered (discontinued)
  CRP Value: (3.6) mg/dl
[1]; day 113, in parentheses: day at which Pimobendan was not administered (discontinued)
  CRP Value: (3.2) mg/dl
[1]; day 119, in parentheses: day at which Pimobendan was not administered (discontinued)
  CRP Value: (2.9) mg/dl
[1]; patient, again 1.25 mg twice a day, day 126 after initiating the administration
  CRP Value: 3.0 mg/dL
[1]; patient, again 1.25 mg twice a day, day 127 after initiating the administration
  CRP Value: 4.3 mg/dL
[1]; patient, again 1.25 mg twice a day, day 130 after initiating the administration
  CRP Value: 3.8 mg/dL
[1]; patient, again 1.25 mg twice a day, day 132 after initiating the administration
  CRP Value: 2.1 mg/dL
[1]; patient, again 1.25 mg twice a day, day 137 after initiating the administration
  CRP Value: 1.3 mg/dL
[1]; patient, oral 1.25 mg twice a day, day 12 after initiating the administration
  CRP Value: 1.7 mg/dL
[1]; patient, oral 1.25 mg twice a day, day 28 after initiating the administration
  CRP Value: 6.1 mg/dL
[1]; patient, oral 1.25 mg twice a day, day 61 after initiating the administration
  CRP Value: 3.0 mg/dL
[1]; patient, oral 1.25 mg twice a day, day 71 after initiating the administration
  CRP Value: 3.3 mg/dL
[1]; re-administration, 1.25 mg twice a day after discontinuation
  CRP value (change): again reduced
[1]; whole test period
  CRP value (overall conclusion from Table 1): reduce the CRP value to a clinically satisfactory level
[2]
  heart function: improved
[3]
  inflammation due to the malignant articular rheumatism: recovered
